This is an account of results in ChEMBL document CHEMBL1201862, “PubChem BioAssay data set” (2004).

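Tested at 5 concentrations; 48 h exposure; 96-well plates; endpoints linearly interpolated, else capped at highest concentration. Abbreviation: GI50, concentration required for 50% inhibition of growth.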 Calls of active or inactive are those of the source. Cut-off read from the data, not from the text of the source: active = GI50 up to about 1.1 µM and inactive = higher.

Some test systems named below: DLD-1; HCT-15; HOP-62; KM-20L2; LOX IMVI; LXFL 529; M19-MEL; MOLT-4; OVCAR-8; RPMI-8226; SF-295; SF-539; SK-MEL-28; SK-MEL-2; SNB-78.
Common to all, as to assay: NCI tumour cell line growth inhibition, 48 h

For the molecule `C=C(C(=O)C(=O)Oc1ccc(Cl)cc1)C(=O)c1ccc(C)cc1`, the GI50 in the assay on DLD-1 was 28.4 µM (inactive); in the assay with HCT-15, 38.8 µM; with HOP-62, > 100 µM (inactive); with KM-20L2, 59.7 µM (inactive); in the assay with LOX IMVI, < 0.01 µM (active); with LXFL 529 it was 27.9 µM (inactive). Moreover, the GI50 with M19-MEL is 17.7 µM (inactive); with MOLT-4, 58.3 µM (inactive); in the assay on OVCAR-8 it was 55.3 µM (inactive); in the assay on RPMI-8226, 31.9 µM (inactive); in the assay with SF-295, 76 µM (inactive); in the assay on SF-539, 18.4 µM (inactive). Moreover, the GI50 with SK-MEL-28 is 71.1 µM (inactive); with SK-MEL-2, > 100 µM (inactive); in the assay with SNB-78 it was 65 µM (inactive).
Turning to `O=C(O)c1cc2sc(C(=O)O)cc2s1`, the GI50 is > 100 µM (inactive) in the assay on DLD-1; > 100 µM in the assay on HCT-15; > 100 µM (inactive) in the assay on HOP-62; > 100 µM (inactive) in the assay with KM-20L2; > 100 µM (inactive) with LOX IMVI; > 100 µM (inactive) in the assay on LXFL 529. In addition, the GI50 in the assay with M19-MEL, in the assay with MOLT-4, in the assay with RPMI-8226, with SF-295, in the assay with SF-539 and in the assay with SNB-78 was > 100 µM (inactive) throughout.
Turning to `O=c1oc2ccccc2n1P(=O)(n1c(=O)oc2ccccc21)n1c(=O)oc2ccccc21`, the GI50 in the assay with DLD-1 is > 100 µM (inactive); in the assay with HOP-62, > 100 µM (inactive); with KM-20L2 it was > 100 µM (inactive); in the assay on LOX IMVI it was > 100 µM (inactive); with LXFL 529, > 100 µM (inactive); in the assay on M19-MEL, 60.3 µM (inactive). In addition, the GI50 with MOLT-4, in the assay with SF-295, in the assay on SF-539, in the assay with SK-MEL-28, in the assay on SK-MEL-2 and with SNB-78 was > 100 µM (inactive) each time.
In the case of `CC(=O)Nc1ccc(OCC(O)CO)cc1` (stereo not drawn), the GI50 was 23.2 µM (inactive) with DLD-1; 29.5 µM in the assay on HCT-15; > 100 µM (inactive) with HOP-62; > 100 µM (inactive) in the assay with KM-20L2; 25.5 µM (inactive) in the assay with LOX IMVI; 52.8 µM (inactive) in the assay with LXFL 529. The GI50 in the assay with M19-MEL was > 100 µM (inactive); in the assay with MOLT-4, > 100 µM (inactive); in the assay on OVCAR-8, > 100 µM (inactive); with RPMI-8226, 21.2 µM (inactive); in the assay with SF-295, > 100 µM (inactive); in the assay on SF-539 it was > 100 µM (inactive). Moreover, the GI50 with SK-MEL-28, with SK-MEL-2 and with SNB-78 was > 100 µM (inactive) throughout.
As for `O=C(CCN(CCO)CCO)Nc1ccc2c(c1)C(=O)c1ccc(NC(=O)CCN(CCO)CCO)cc1C2=O`, the GI50 is 6.47 µM in the assay with HCT-15; 29.4 µM (inactive) in the assay on HOP-62; 48.4 µM (inactive) in the assay on KM-20L2; 14.2 µM (inactive) in the assay on LOX IMVI; 2.05 µM (inactive) in the assay with LXFL 529; 13.7 µM (inactive) in the assay with M19-MEL. Also, the GI50 in the assay on MOLT-4 was 13.8 µM (inactive); in the assay with OVCAR-8, 14 µM (inactive); with RPMI-8226, 14.6 µM (inactive); with SF-295 it was > 100 µM (inactive); in the assay on SF-539 it was 4.81 µM (inactive); with SK-MEL-28, 15.1 µM (inactive). Besides, the GI50 with SK-MEL-2 was 3.37 µM (inactive); with SNB-78 it was 6.62 µM (inactive).
